# Laboratory results as given in publication PMC7835349 (Communications Biology, 2021).
# “And” between values parts separate entries of the source, which are not always exact repeats. Equal values may be shown once.
# Tests used:
# [1] = Tumour pharmacokinetics (released and total AZD4320) in RS4;11 tumours; format: in vivo, C.B-17 SCID mouse
# Excerpt: For tumour measurements, tumours were harvested, split into smaller pieces and snap frozen in liquid nitrogen. Frozen tumour samples were subsequently weighed and then homogenised for both ‘released’ and ‘total’ AZD4320. For ‘released’ AZD4320, samples were homogenised on ice with an equal volume (w/v) of blank plasma containing 0.2 M citric acid. The samples were then processed according to the aforementioned plasma approach. For ‘total’ AZD4320, samples were homogenised with an equal volume of plasma (w/v) and then processed according to the aforementioned ‘total’ approach.
# Sample analyses were performed in batches containing study samples, calibration standards at 10 concentration levels, QC samples at three concentration levels in duplicate and blank samples. The analytical run acceptance criteria for calibration standards and QC samples was that at least 75% of back-calculated concentrations for calibration standards and at least 2/3 of the QC samples (at least 50% at each concentration level) should be within ±20% (±25% at LLOQ) from nominal value.
# Female C.B.−17 SCID mice were purchased from Charles River Laboratories. Mice were 5–8 weeks old at the time of tumour implantation. All xenograft studies were conducted at our Association for the Assessment and Accreditation of Laboratory Animal Care accredited facility in Waltham, MA in accordance with ethical regulations described in the guidelines established by the internal Institutional Animal Care and Use Committee. The dendrimer conjugates were formulated in citrate/phosphate buffer pH 5.0, diluted 1:10 with 5% glucose containing 1% w/v Kolliphor HS15, and AZD4320 was formulated in 30% HP-β-CD and dosed as a weekly intravenous (IV) administration at a volume of 5 ml/kg at the indicated doses. Five million RS4;11, five million SUDHL-4 or five million OCI-LY-10 cells were injected subcutaneously in the right flank of mice in a volume of 0.1 ml. Tumour volumes (measured by caliper), animal body weight, and tumor condition were recorded twice weekly for the duration of the study. The tumour volume was calculated (taking length to be the longest diameter across the tumour and width to be the corresponding perpendicular diameter) using the formula: length (mm) x width (mm)^2/0.52. For efficacy studies, mice were randomized based on tumour volumes using stratified sampling and enrolled into control and treatment groups. Tumour growth inhibition from the start of treatment was quantified by measuring the difference in tumour volume between control and treated groups. Survival analysis was evaluated using Mantel-Cox test. Tumours were also taken for bioanalysis.
# cleaved caspase-3 (CC3) = experiment: Cleaved caspase-3 in RS4;11 tumours by MSD ELISA; format: in vivo, C.B-17 SCID mouse; details: for CC3 PD fold over vehicle, individual tumours: RS4;11, single dose 10 mg/kg or equivalent
# Description: Tumours were excised, snap frozen in liquid nitrogen and stored at –80 °C. Tumours were homogenised in lysis buffer containing protease and phosphatase inhibitors, protein concentration determined by Pierce BCA Protein Assay Kit and diluted in lysis buffer to a protein concentration of 0.4 μg/μL. Cleaved caspase-3 (CC3) was measured using the mesoscale cleaved caspase-3 (Asp175) assay whole cell lysate kit according to manufacturer’s instructions. Induction of CC3 was expressed as fold change of treated tumours over vehicle control.
# telemetered rats = experiment: Conscious rat telemetry (QRS amplitude, blood pressure, tolerability); details: for QRS amplitude (mV change): individual rats; for QRS amplitude (mV change), Mean: mean of rats;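 as to all read-outs here: male Han Wistar rats carrying implanted telemetry transmitters, with ECG and arterial pressure recorded continuously while unrestrained in their home cage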
# Description: Male Han Wistar rats were implanted with HD‐S11 transmitters (Data Sciences International, St. Paul, MN USA) under isoflurane anaesthesia, the telemetry transmitter was placed in the peritoneal cavity, the arterial blood pressure catheter was placed in the terminal abdominal aorta and the ECG electrodes were sutured, one at the dorsal surface of the xiphoid process and one at the anterior mediastinum, close to the right atrium[42]. Animals were allowed to recover for at least 2 weeks and were around 2–3 months at the time of experimentation. The animals were pair‐housed in standard rat cages with a non‐instrumented companion throughout the study. Cages were prepared with bedding material and enrichment.
# Telemetry recordings took place in the home cage. […] The animals were removed from the cage temporarily for dosing and blood sampling. Animals were not subject to restraint except where dosing and blood sampling was performed. Data acquisition used Dataquest Open A.R.T.™ with HEM software version 4.2 (Notocord Inc).
# For evaluation of AZD4320, n = 8 rats received single doses of 0 (vehicle: 30% Kleptose, pH9) or 10 mg/kg AZD4320, administered as a 30-min intravenous infusion. A cross-over study design was used, with an interval of 7 days between treatments.
# Data for all parameters were collected continuously during the recording period. The continuous data from each animal was binned into chosen time intervals of varying length and averaged to generate a single data point for each reported nominal time. Each reported nominal timepoint was then averaged across each of the animals tested for each dose level.
# [2] = RS4;11 tumours, 10 mg/kg or equivalent
# [3] = rat, AZD4320 10 mg/kg, 0 h post dose
# [4] = rat, Dose 10 mg/kg (AZD4320 equivalent 10 for AZD4320, 3 for conjugates)
structure (smiles),measurement,setting,value
CN(CCO)CCC(CSc1ccccc1)Nc1ccc(S(=O)(=O)NC(=O)c2ccc(N3CCC(C(O)c4ccccc4-c4ccc(Cl)cc4)CC3)cc2)cc1S(=O)(=O)C(F)(F)F (stereo not shown) [AZD4320],"Tumor PK Released AZD4320, individual tumours","[1]; RS4;11, single dose 10 mg/kg or equivalent, 0.5 h, 10 mg/kg",910 ng/g
same,"Tumor PK Released AZD4320, individual tumours","[1]; RS4;11, single dose 10 mg/kg or equivalent, 1 h, 10 mg/kg",813 ng/g
same,"Tumor PK Released AZD4320, individual tumours","[1]; RS4;11, single dose 10 mg/kg or equivalent, 5 h, 10 mg/kg",1290 ng/g and 307 ng/g
same,"Tumor PK Released AZD4320, individual tumours","[1]; RS4;11, single dose 10 mg/kg or equivalent, 24 h, 10 mg/kg",232 ng/g
same,time of maximum (released) AZD4320 concentration in tumour,[1]; [2],≤ 0.5 h
same,concentration at 0.5 h,"[1]; female, C.B-17 SCID, mouse, tumour (RS4;11 xenograft), intravenous, 10 mg/kg, RS4;11, single dose 10 mg/kg or equivalent, 0.5 h, read-out: Tumor PK released AZD4320, individual tumours",1360 ng/g
same,concentration at 1 h,"[1]; female, C.B-17 SCID, mouse, tumour (RS4;11 xenograft), intravenous, 10 mg/kg, RS4;11, single dose 10 mg/kg or equivalent, 1 h, read-out: Tumor PK released AZD4320, individual tumours",1220 ng/g
same,concentration at 24 h,"[1]; female, C.B-17 SCID, mouse, tumour (RS4;11 xenograft), intravenous, 10 mg/kg, RS4;11, single dose 10 mg/kg or equivalent, 24 h, read-out: Tumor PK released AZD4320, individual tumours",359 ng/g
same,"CC3 PD fold over vehicle, individual tumours","cleaved caspase-3 (CC3); 0.5 h, 10 mg/kg",36.58 fold over vehicle and 31.76 fold over vehicle
same,"CC3 PD fold over vehicle, individual tumours","cleaved caspase-3 (CC3); 1 h, 10 mg/kg",36.44 fold over vehicle and 36.82 fold over vehicle
same,"CC3 PD fold over vehicle, individual tumours","cleaved caspase-3 (CC3); 5 h, 10 mg/kg",42.22 fold over vehicle and 39.06 fold over vehicle
same,"CC3 PD fold over vehicle, individual tumours","cleaved caspase-3 (CC3); 24 h, 10 mg/kg",21.02 fold over vehicle and 47.67 fold over vehicle
same,time of onset of CC3 activation,cleaved caspase-3 (CC3); [2],≤ 0.5 h
same,maximal activation of cleaved caspase-3 (CC3),"cleaved caspase-3 (CC3); RS4;11 tumours, 10 mg/kg, by 5 h, sustained for 24 h",40 fold
same,decrease in QRS amplitude,"telemetered rats; rat, 10 mg/kg AZD4320",40%
same,rats in which dose was tolerated,"telemetered rats; rat, 10 mg/kg AZD4320, 8 rats evaluated",6 of the 8
same,QRS amplitude (mV change),telemetered rats; [3],0 mV
same,"QRS amplitude (mV change), Mean",telemetered rats; [3],0 mV
same,QRS amplitude (mV change),"telemetered rats; rat, AZD4320 10 mg/kg, 0.5 h post dose, 10 mg/kg",0.05 mV and -0.49 mV (2×) and -0.03 mV and 0.27 mV and -0.09 mV
same,"QRS amplitude (mV change), Mean","telemetered rats; rat, AZD4320 10 mg/kg, 0.5 h post dose",-0.13 mV
same,QRS amplitude (mV change),"telemetered rats; rat, AZD4320 10 mg/kg, 1 h post dose, 10 mg/kg",-0.55 mV and -0.92 mV and 0.04 mV and -0.24 mV and -0.19 mV and -0.87 mV
same,"QRS amplitude (mV change), Mean","telemetered rats; rat, AZD4320 10 mg/kg, 1 h post dose",-0.46 mV
same,QRS amplitude (mV change),"telemetered rats; rat, AZD4320 10 mg/kg, 1.5 h post dose, 10 mg/kg",-0.76 mV and -0.96 mV (2×) and 0.29 mV and -0.3 mV and -0.18 mV
same,"QRS amplitude (mV change), Mean","telemetered rats; rat, AZD4320 10 mg/kg, 1.5 h post dose",-0.48 mV
same,QRS amplitude (mV change),"telemetered rats; rat, AZD4320 10 mg/kg, 2 h post dose, 10 mg/kg",-0.73 mV and -0.96 mV and -0.38 mV and -0.26 mV (2×) and -1.03 mV
same,"QRS amplitude (mV change), Mean","telemetered rats; rat, AZD4320 10 mg/kg, 2 h post dose",-0.60 mV
same,QRS amplitude (mV change),"telemetered rats; rat, AZD4320 10 mg/kg, 3 h post dose, 10 mg/kg",-0.79 mV and -0.63 mV and -0.28 mV and -0.4 mV and -0.48 mV and -0.99 mV
same,"QRS amplitude (mV change), Mean","telemetered rats; rat, AZD4320 10 mg/kg, 3 h post dose",-0.60 mV
same,QRS amplitude (mV change),"telemetered rats; rat, AZD4320 10 mg/kg, 3.5 h post dose, 10 mg/kg",-0.8 mV and -0.81 mV and -0.54 mV and -0.38 mV and -0.47 mV and -1 mV
same,"QRS amplitude (mV change), Mean","telemetered rats; rat, AZD4320 10 mg/kg, 3.5 h post dose",-0.67 mV
same,QRS amplitude (mV change),"telemetered rats; rat, AZD4320 10 mg/kg, 4 h post dose, 10 mg/kg",-0.8 mV and -1.02 mV and -0.16 mV and -0.35 mV and -0.65 mV and -0.98 mV
same,"QRS amplitude (mV change), Mean","telemetered rats; rat, AZD4320 10 mg/kg, 4 h post dose",-0.66 mV
same,QRS amplitude (mV change),"telemetered rats; rat, AZD4320 10 mg/kg, 6 h post dose, 10 mg/kg",-0.76 mV and -1 mV and -0.2 mV and -0.16 mV and -0.57 mV and -0.7 mV
same,"QRS amplitude (mV change), Mean","telemetered rats; rat, AZD4320 10 mg/kg, 6 h post dose",-0.57 mV
same,QRS amplitude (mV change),"telemetered rats; rat, AZD4320 10 mg/kg, 8 h post dose, 10 mg/kg",-0.63 mV (3×) and 0.08 mV and -0.08 mV and -0.57 mV
same,"QRS amplitude (mV change), Mean","telemetered rats; rat, AZD4320 10 mg/kg, 8 h post dose",-0.41 mV
same,QRS amplitude (mV change),"telemetered rats; rat, AZD4320 10 mg/kg, 10 h post dose, 10 mg/kg",-0.56 mV and -0.75 mV and 0.54 mV and 0.03 mV and -0.61 mV and -0.59 mV
same,"QRS amplitude (mV change), Mean","telemetered rats; rat, AZD4320 10 mg/kg, 10 h post dose",-0.32 mV
same,QRS amplitude (mV change),"telemetered rats; rat, AZD4320 10 mg/kg, 12 h post dose, 10 mg/kg",-0.6 mV and -0.97 mV and -0.25 mV and 0.18 mV and -0.42 mV and -0.58 mV
same,"QRS amplitude (mV change), Mean","telemetered rats; rat, AZD4320 10 mg/kg, 12 h post dose",-0.44 mV
same,QRS amplitude (mV change),"telemetered rats; rat, AZD4320 10 mg/kg, 16 h post dose, 10 mg/kg",-0.44 mV and -0.8 mV and 0.61 mV and -0.14 mV and -0.6 mV and -0.72 mV
same,"QRS amplitude (mV change), Mean","telemetered rats; rat, AZD4320 10 mg/kg, 16 h post dose",-0.35 mV
same,QRS amplitude (mV change),"telemetered rats; rat, AZD4320 10 mg/kg, 24 h post dose, 10 mg/kg",-0.56 mV and -0.96 mV and -0.74 mV and -0.13 mV and -0.57 mV and -0.76 mV
same,"QRS amplitude (mV change), Mean","telemetered rats; rat, AZD4320 10 mg/kg, 24 h post dose",-0.62 mV
same,"QRS amplitude (mV change), Mean","telemetered rats; rat, AZD4320 10 mg/kg, […] post dose",-0.58 mV
same,Blood pressure decrease,telemetered rats; [4],Yes
same,QRS amplitude decrease,telemetered rats; [4],Yes
same,Tolerated?,telemetered rats; [4],6/8
same,effect on QRS amplitude,"telemetered rats; telemetered rat, AZD4320 10 mg/kg, conjugates 30 mg/kg IV",marked and prolonged reduction in QRS amplitude
